Assay results published in ChEMBL document CHEMBL1201862, “PubChem BioAssay data set” (2004).
Activity calls are given as the source filed them.

Key:
[1] = molecular target: Induced myeloid leukemia cell differentiation protein Mcl-1 (Homo sapiens, UniProt Q07820); type: functional
[2] = HEK-293T viability loss after treatment – luminescence, T-cell screen hits, cytotoxicity control for TCR NF-kB inhibitor project, dose response (AID 489026); type: functional, cell-based;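 also: cells exposed to compound about 14 hours before the viability readout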
Cytochrome P450 1A2 = molecular target: T1, Cytochrome P450 1A2 (Homo sapiens, UniProt P05177);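 also: PubChem cytochrome P450 panel assay, CYP1A2 panel member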
T1 sequence (P05177 whole entry): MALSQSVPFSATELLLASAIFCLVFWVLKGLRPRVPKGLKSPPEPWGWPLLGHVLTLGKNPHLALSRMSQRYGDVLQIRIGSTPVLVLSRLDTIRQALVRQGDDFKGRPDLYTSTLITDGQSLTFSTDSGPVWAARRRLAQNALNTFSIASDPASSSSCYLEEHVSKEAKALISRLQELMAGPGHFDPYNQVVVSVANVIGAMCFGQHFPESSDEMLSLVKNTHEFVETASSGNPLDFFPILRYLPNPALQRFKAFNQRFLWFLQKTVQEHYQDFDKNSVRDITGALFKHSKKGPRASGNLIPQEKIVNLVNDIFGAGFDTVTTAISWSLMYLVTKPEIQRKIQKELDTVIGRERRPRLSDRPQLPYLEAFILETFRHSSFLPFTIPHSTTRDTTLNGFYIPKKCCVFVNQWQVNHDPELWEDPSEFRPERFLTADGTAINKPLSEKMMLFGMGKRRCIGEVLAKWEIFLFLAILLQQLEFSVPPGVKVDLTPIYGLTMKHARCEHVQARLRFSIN

Cytochrome P450 3A4 = Cytochrome P450 3A4 (Homo sapiens, UniProt P08684);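 also: CYP3A4 tested as one member of a cytochrome P450 panel screen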
Cytochrome P450 2D6 = Cytochrome P450 2D6 (Homo sapiens, UniProt P10635);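 also: CYP2D6 member of a cytochrome P450 panel assay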
[3] = molecular target: T2, Mannose-6-phosphate isomerase (Homo sapiens, UniProt P34949); assay: MPI inhibition at elevated mannose 6-phosphate – biochemical, fluorescence intensity, high mannose 6-phosphate, primary screen (AID 1220)
T2 sequence (P34949 whole entry): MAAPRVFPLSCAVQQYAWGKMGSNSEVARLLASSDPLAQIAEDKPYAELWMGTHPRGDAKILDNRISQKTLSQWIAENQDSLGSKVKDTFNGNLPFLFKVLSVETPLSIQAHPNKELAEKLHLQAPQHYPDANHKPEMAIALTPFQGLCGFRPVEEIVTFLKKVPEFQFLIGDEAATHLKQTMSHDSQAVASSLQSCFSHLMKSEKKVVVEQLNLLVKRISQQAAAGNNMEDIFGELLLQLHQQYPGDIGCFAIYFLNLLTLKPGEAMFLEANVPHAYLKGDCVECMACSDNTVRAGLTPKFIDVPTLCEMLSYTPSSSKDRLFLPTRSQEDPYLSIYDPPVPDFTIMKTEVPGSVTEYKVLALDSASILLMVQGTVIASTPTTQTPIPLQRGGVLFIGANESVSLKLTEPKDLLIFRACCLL

Cytochrome P450 2C19 = Cytochrome P450 2C19 (Homo sapiens, UniProt P33261); assay: Cytochrome panel assay with activity outcomes. Panel member name: p450-cyp2c19 Compounds with AC50 equal or less than 10 uM are considered active; type: functional; conditions: read-out: AC50
Cytochrome P450 2C9 = Cytochrome P450 2C9 (Homo sapiens, UniProt P11712)
[4] = viability of PTEN-deleted HCT116 cells – cell-based, HCT116 PTEN knockout, dose response (AID 1047); type: functional;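 also: HCT116 colon tumor cells with PTEN knocked out; cells exposed to compound for 60 hours before readout; potency for loss of cell viability measured by luminescence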
[5] = viability of HCT116 lacking mutant beta-catenin – cell-based, human colon tumor, dose response (AID 1045); type: functional;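 also: HCT116 colon tumor cells with beta catenin knocked out; cells exposed to compound for 60 hours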
[6] = molecular target: T3, Microphthalmia-associated transcription factor (Homo sapiens, UniProt O75030); assay: reducers of TRPM1 reporter luminescence, concentration series – cell-based, SK-MEL-5, cherry-picked, set 3, MITF inhibitor project, dose response (AID 493073); type: functional;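 also: SK-MEL-5 melanoma cells with luciferase driven by the MITF target TRPM1 promoter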
T3 sequence (O75030 whole entry): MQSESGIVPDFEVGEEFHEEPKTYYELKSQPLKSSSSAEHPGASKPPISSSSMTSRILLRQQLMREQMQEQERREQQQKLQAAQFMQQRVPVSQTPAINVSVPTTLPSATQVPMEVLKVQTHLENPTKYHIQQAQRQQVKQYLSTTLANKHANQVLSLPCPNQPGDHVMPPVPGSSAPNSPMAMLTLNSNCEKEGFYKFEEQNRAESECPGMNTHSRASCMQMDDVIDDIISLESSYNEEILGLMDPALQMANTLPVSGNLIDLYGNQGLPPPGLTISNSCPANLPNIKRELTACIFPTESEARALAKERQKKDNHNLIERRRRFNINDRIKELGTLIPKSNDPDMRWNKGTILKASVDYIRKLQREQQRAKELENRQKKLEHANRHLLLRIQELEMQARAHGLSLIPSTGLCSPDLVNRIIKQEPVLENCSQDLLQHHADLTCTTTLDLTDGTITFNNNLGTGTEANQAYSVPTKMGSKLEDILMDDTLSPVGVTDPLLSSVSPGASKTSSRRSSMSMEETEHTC

Large T antigen = Large T antigen (Simian virus 40, UniProt P03070); type: functional, Betapolyomavirus macacae;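 also: Confirmatory-stage PubChem screen for compounds that inhibit SV40 T antigen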
[7] = Luminescence Cell-Based Dose Confirmation HTS to Identify Inhibitors of Platelet Dense Granule Release. [Related pubchem assays: 1663 (Primary HTS), 1678 (Summary of Project)]; type: functional
[8] = molecular target: Luciferin 4-monooxygenase (Photinus pyralis, UniProt P08659); assay: inhibition of purified Photinus pyralis luciferase – biochemical, luminescence, dose response (AID 1891)
Nonstructural protein 1 = Nonstructural protein 1 (Influenza A virus, UniProt Q194T2); type: functional, Influenza A virus (A/California/07/2009(H1N1))
[9] = Luminescence Cell-Based Dose Retest to Confirm Inhibitors of Cancer Stem Cells. [Related pubchem assays (depositor defined):AID2717, AID2721]; type: functional; conditions: Homo sapiens
INS1 = assay: INS-1E survival protection against cytokine death – cell-based, luminescence, retest, dose response (AID 449756); type: functional; conditions: Rattus norvegicus;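 also: cell death triggered by IL-1 beta plus TNF-alpha plus IFN-gamma mixture; protective hits raise ATP signal compared with cytokine alone wells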

Sequence of Induced myeloid leukemia cell differentiation protein Mcl-1 (Q07820 whole entry): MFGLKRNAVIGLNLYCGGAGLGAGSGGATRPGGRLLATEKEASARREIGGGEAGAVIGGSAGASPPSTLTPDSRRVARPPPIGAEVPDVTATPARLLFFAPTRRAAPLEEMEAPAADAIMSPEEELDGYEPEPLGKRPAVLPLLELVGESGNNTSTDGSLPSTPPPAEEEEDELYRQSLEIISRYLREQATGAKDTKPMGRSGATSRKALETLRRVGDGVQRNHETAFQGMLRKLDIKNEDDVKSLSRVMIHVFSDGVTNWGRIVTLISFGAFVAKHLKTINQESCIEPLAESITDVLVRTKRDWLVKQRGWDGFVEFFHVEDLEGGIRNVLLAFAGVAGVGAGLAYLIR
Sequence of Cytochrome P450 3A4 (P08684 whole entry): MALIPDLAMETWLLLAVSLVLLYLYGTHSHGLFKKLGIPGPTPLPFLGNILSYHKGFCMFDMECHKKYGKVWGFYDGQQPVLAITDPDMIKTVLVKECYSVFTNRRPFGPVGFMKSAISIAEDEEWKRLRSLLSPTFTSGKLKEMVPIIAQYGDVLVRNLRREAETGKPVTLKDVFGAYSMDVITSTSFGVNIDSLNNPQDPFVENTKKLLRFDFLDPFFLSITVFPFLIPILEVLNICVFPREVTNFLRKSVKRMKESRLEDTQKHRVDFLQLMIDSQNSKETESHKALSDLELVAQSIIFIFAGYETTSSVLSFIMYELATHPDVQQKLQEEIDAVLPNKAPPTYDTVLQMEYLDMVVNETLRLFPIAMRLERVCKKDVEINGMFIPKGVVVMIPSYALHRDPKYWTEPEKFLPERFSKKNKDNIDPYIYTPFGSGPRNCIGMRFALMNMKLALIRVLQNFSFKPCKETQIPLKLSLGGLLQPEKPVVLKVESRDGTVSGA
Sequence of Cytochrome P450 2C19 (P33261 whole entry): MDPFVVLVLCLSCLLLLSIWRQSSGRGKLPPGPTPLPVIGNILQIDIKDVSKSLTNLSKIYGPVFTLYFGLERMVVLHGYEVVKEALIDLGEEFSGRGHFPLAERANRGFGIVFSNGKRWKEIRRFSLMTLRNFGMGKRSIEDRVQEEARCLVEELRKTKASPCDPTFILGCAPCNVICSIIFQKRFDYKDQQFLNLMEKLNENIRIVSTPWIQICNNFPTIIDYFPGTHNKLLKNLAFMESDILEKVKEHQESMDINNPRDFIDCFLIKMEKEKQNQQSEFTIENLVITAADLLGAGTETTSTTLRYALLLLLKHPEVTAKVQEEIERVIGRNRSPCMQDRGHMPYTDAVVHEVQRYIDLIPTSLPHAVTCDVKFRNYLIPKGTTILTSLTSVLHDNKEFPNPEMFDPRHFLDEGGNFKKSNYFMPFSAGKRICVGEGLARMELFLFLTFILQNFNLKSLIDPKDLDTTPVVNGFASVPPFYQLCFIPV
Sequence of Cytochrome P450 2C9 (P11712 whole entry): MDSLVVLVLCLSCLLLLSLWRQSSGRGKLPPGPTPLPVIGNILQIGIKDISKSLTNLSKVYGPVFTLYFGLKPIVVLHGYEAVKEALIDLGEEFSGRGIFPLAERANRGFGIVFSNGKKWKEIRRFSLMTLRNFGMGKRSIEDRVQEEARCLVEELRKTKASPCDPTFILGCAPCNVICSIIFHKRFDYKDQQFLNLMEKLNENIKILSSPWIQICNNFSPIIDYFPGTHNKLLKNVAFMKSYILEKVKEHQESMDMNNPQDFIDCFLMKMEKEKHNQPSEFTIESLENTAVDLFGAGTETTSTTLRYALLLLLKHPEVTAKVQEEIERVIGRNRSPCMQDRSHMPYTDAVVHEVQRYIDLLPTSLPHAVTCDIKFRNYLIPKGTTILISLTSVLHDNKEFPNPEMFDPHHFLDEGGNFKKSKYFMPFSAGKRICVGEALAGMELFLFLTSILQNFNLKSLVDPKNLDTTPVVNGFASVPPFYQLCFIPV
Sequence of Cytochrome P450 2D6 (P10635 whole entry): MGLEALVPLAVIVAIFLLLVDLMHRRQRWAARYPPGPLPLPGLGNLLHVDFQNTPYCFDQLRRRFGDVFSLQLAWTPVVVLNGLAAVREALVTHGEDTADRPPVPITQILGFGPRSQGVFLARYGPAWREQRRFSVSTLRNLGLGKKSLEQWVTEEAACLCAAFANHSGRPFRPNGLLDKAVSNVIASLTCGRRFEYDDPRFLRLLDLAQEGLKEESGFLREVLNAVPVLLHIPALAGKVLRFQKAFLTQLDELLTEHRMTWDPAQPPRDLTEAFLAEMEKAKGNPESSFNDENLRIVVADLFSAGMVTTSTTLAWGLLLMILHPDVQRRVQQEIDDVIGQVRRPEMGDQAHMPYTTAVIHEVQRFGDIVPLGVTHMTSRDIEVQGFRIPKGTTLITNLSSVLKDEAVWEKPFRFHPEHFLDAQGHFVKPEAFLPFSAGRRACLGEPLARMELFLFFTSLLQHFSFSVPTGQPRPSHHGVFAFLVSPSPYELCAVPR
Sequence of Nonstructural protein 1 (Q194T2 whole entry): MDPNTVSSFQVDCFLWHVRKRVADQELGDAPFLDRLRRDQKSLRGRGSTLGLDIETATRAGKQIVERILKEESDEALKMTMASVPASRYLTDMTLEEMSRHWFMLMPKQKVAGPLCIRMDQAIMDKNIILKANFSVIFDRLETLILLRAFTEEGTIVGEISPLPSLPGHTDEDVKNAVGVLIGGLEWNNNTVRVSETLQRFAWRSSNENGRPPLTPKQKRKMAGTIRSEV
Sequence of Luciferin 4-monooxygenase (P08659 whole entry): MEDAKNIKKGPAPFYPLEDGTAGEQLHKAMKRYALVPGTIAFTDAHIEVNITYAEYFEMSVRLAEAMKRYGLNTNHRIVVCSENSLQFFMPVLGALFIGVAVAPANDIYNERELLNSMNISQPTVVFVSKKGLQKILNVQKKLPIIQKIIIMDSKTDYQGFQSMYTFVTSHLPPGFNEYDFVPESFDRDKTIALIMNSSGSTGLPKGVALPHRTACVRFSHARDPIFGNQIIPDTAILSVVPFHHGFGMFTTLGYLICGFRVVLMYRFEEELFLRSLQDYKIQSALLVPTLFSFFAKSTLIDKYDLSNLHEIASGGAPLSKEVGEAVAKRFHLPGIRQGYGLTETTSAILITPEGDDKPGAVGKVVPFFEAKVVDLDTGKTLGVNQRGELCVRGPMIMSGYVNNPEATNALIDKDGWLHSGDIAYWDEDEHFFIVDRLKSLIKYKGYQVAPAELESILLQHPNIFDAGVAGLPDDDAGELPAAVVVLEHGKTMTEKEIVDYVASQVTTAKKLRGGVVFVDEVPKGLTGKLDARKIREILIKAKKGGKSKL
Sequence of Large T antigen (P03070 whole entry): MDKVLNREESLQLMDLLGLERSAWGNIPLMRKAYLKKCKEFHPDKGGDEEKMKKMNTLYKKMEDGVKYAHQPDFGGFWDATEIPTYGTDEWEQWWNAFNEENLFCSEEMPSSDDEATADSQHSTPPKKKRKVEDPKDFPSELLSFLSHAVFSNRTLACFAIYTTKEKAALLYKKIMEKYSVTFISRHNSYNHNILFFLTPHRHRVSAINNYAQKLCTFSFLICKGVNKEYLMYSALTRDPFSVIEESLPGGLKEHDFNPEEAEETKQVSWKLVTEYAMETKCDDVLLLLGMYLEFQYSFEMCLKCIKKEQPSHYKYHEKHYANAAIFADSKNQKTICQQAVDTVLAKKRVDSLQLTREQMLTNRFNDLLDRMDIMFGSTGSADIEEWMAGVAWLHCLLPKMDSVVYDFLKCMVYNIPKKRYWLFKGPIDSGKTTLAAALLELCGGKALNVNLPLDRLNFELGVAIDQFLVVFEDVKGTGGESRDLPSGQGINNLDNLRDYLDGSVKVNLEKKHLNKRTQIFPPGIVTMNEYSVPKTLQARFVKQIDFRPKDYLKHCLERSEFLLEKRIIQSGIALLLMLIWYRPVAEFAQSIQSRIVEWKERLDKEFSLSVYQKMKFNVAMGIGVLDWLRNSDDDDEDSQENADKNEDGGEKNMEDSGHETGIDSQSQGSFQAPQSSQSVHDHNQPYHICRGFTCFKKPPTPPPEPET

With `Cc1c(NS(=O)(=O)c2cc(NC(=O)CCN3CCCC(C)C3)ccc2Cl)c(=O)n(-c2ccccc2)n1C` (stereo not drawn) the IC50 [1] was 4.67 µM (not active).
With `COc1ccc(C(=O)N(C)Cc2cnn(Cc3ccccc3)c2)cc1S(=O)(=O)N1CCOCC1` the IC50 [2] was > 80 µM (inactive).
In the case of `CCOC(=O)C1=C(C)N=C2SC(C(=O)OC)=CC(=O)N2C1c1ccc(F)cc1` (stereo not drawn), the AC50 (Cytochrome P450 1A2) is reported as 31.6 µM (inconclusive), the AC50 (Cytochrome P450 3A4) is reported as “inconclusive” and the AC50 (Cytochrome P450 2D6) is reported as 12.6 µM (inconclusive).
For `Cc1ccc(NC(=S)Nc2cccc3cnccc23)cc1`, the IC50 [3] was > 50 µM (not active).
With `O=C(c1cccc(F)c1)N1CCC2(CC1)CN(c1cccc(-c3ccccc3)c1)C2` the AC50 (Cytochrome P450 1A2) was 12.6 µM (inconclusive) and the AC50 (Cytochrome P450 3A4) was “inconclusive”.
For `COc1ccc(N(C)C(=S)Nc2ccc3nc(C)c(C)nc3c2)cc1`, the IC50 [3] was > 50 µM (not active).
In the case of `COc1cc(/C=C/c2nc3ccccc3c(=O)n2-c2cccc(O)c2)ccc1O`, the IC50 [1] is reported as 8.49 µM (active).
In the case of `Cn1c(=O)c(-c2ccccc2)nc2cnc(N3CCOCC3)nc21`, the AC50 (Cytochrome P450 2C19) is reported as 39.8 µM (inconclusive), the AC50 (Cytochrome P450 3A4) is reported as “inconclusive” and the AC50 (Cytochrome P450 2C9) is reported as 39.8 µM (inconclusive).
With `COC(=O)N1CCC2(CC1)CN(c1ccccn1)C2` the AC50 (Cytochrome P450 3A4) was “inconclusive” and the AC50 (Cytochrome P450 2D6) was 10 µM (inconclusive).
With `C=CCN1C(=O)/C(=C/c2cc(C)n(-c3cccnc3)c2C)C(=O)NC1=S` the IC50 [3] was > 50 µM (not active), the EC50 [4] was 89.5 µM (active) and the EC50 [5] was 53.3 µM (active). The AC50 [6] was 16.8 µM (active) and the IC50 (Large T antigen) was 66.7 µM (active).
With `O=C(c1ccco1)N1CCC2(CC1)CN(c1ccc(-c3ccccc3)cc1)C2` the AC50 (Cytochrome P450 1A2) was 1 µM (inconclusive), the AC50 (Cytochrome P450 2C19) was 0.158 µM (inconclusive) and the AC50 (Cytochrome P450 3A4) was “inconclusive”.
For `Cc1cnc(CNc2cc(-c3ccccc3C)ncn2)cn1`, the AC50 (Cytochrome P450 3A4) was “inconclusive”.
With `COc1cc2c(cc1OC)C1=C(C#N)CN(CC(=O)O)CN1CC2` the EC50 [7] was > 112 µM (not active), the IC50 [3] was 34.1 µM (active) and the EC50 [8] was > 112 µM (not active).
For `Cc1cccc(-c2csc(N)c2C(=O)OC(C)C)c1`, the IC50 [3] was > 50 µM (not active).
With `C/C(=N\NC(=O)c1cc(C)nc2ccccc12)c1ccccn1` the IC50 [2] was > 80 µM (inactive), the IC50 (Nonstructural protein 1) was 2.23 µM (active) and the AC50 [9] was 3.37 µM (active). For the same compound, the AC50 (INS1) was 0.626 µM (active).
With `O=C(N/N=C/c1ccc(O)c(O)c1)/C(O)=C\C1=NC2(CCCC2)Cc2ccccc21` the IC50 [1] was 3.56 µM (active).
For `CC1(C)CC(=O)C(=CNc2cccc(/N=C/C3=C(O)CC(C)(C)CC3=O)n2)C(=O)C1`, the IC50 [1] was 1.31 µM (not active).
For `CC(/C=N\Nc1n[nH]c2c3cccc(C)c3nc-2n1)=C\c1ccco1`, the IC50 [1] was 3.46 µM (active).
In the case of `Oc1ccc2[nH]cc(CCCCN3CC=C(c4ccccc4)CC3)c2c1` [ROXINDOLE], the AC50 (Cytochrome P450 2C19) is reported as 20 µM (inconclusive), the AC50 (Cytochrome P450 3A4) is reported as “inconclusive” and the AC50 (Cytochrome P450 2C9) is reported as 12.6 µM (inconclusive).
